The record followed here is US11530244B2, “Cyclic polypeptides for PCSK9 inhibition” (priority 2018, dated 2022).

Like-named read-outs stand apart in the source and are kept apart here. Starred links: 1 amine or outer side, 2 acyl side, 3 side chain; linkers in the order of their positions; H or OH if unused. Positions of bridges follow the written chain, without caps; N, C: chain ends. Non-standard residues stand in square brackets, D forms with d. Residues, ends and D or L forms follow the SMILES beside them. Phe(3-CH2NH2) = O=C([C@H](Cc1cccc(CN[*:3])c1)N[*:1])[*:2]; NMeTrp(1-Me) = CN[C@@H](Cc1cn(C)c2ccccc12)C(=O)O; Phe(4-COOH) = N[C@@H](Cc1ccc(C(=O)O)cc1)C(=O)O; Trp(5-F) = N[C@@H](Cc1c[nH]c2ccc(F)cc12)C(=O)O; mXylylene(5-F) = Fc1cc(C[*:1])cc(C[*:2])c1; Pro(cis-4-F) = O=C(O)[C@@H]1C[C@H](F)CN1; Lys(N3) = [N-]=[N+]=NCCCC[C@H](N)C(=O)O; X4 = O=C(CCSCc1cccc(CSCCN[*:1])c1)[*:2]; Orn(N3) = [N-]=[N+]=NCCC[C@H](N)C(=O)O; X40 = FC(F)(F)c1cc(C[*:1])cc(C[*:2])c1; 2Nal = N[C@@H](Cc1ccc2ccccc2c1)C(=O)O; mXylylene = c1cc(C[*:1])cc(C[*:2])c1; AEF = NCCOc1ccc(C[C@H](N)C(=O)O)cc1; X53 = C#CCCC[C@H](N[*:1])C(=O)[*:2]; Glutaryl = O=C(CCCC(=O)[*:2])[*:1]; X7 = O=C(Cc1ccc(CN[*:1])cc1)[*:2]; NMeT = CN[C@H](C(=O)O)[C@@H](C)O; aThr = C[C@H](O)[C@H](N)C(=O)O; X59 = Fc1ccc(C[*:2])cc1C[*:1]; dNMeL = CN[C@H](CC(C)C)C(=O)O; αMeP = C[C@@]1(C(=O)O)CCCN1; Dab = NCC[C@H](N)C(=O)O; Nva = CCC[C@H](N)C(=O)O; X2 = O=C(C[*:2])[*:1]; Ava = NCCCCC(=O)O; Mpa = O=C(O)CCS

The target in this test is PCSK9 (Homo sapiens (Human), UniProt Q8NBP7). Kind of test: PCSK9 Alexa FRET Standard assay (displacement of AlexaFluor647 tagged cyclic peptide Reagent A). It is filed as binding. How it is done: A solution containing 1 nM biotinylated PCSK9+2.5 nM Lance Streptavidin Europium (Strep-Eu) was made in 50 mM HEPES pH 7.4, 0.15 M NaCl, 5 mM CaCl2), 0.01% BSA, and 0.01% Surfactant P20. A separate solution containing 40 nM of the AlexaFluor tagged cyclic peptide was made in the same buffer system. An Echo was used to transfer 0.750 ul of compound to an assay plate followed by the addition of 15 ul of PCSK9+Stept-Eu and 15 ul of AF peptide. The final assay volume was 30.750 ul containing 0.5 nM PCSK9, 1.25 nM Strep-Eu, and 20 nM AF cyclic peptide. The reaction was incubated at room temperature for at least two hours prior to fluorescence measurements using an Envision Multilabel Reader. IC50 values were determined by fitting data to a sigmoidal dose-response curve using nonlinear regression. Ki was then calculated from the IC50 and the KD of AF cyclic peptide. Counts (B-counts) of the europium-labeled PCSK9 were followed to observe if compounds were […]. A fall off of the B-counts likely indicated a false positive of inhibition. Data from this procedure was reported as “A=‘numerical value’ (nanomolar)”

The mark [1] stands for this setting: PCSK9 Alexa FRET Standard assay, 0.5 nM PCSK9, 20 nM AF cyclic peptide Reagent A, read-out: IC50.

Chain of PCSK9 (Q8NBP7 153-692): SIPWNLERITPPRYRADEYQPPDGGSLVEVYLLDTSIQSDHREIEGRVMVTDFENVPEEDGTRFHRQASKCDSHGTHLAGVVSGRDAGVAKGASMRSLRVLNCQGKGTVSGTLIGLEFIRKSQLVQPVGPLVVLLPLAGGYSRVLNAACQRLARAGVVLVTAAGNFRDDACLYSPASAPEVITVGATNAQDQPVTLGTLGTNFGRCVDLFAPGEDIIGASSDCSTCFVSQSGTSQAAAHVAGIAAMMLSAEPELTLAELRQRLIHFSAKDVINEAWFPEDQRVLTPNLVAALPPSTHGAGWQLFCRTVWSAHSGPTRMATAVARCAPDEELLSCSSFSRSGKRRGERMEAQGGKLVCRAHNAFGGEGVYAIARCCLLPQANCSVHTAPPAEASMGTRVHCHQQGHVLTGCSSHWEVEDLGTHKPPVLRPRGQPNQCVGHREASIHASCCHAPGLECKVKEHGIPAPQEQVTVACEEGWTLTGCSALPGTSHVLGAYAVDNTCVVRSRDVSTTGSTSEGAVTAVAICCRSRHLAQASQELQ

In the case of `CC[C@H](C)[C@@H]1NC(=O)[C@@H]2CCCN2C(=O)[C@H](Cc2c[nH]c3ccc(F)cc23)NC(=O)[C@H](Cc2c[nH]c3ccc(F)cc23)NC(=O)CNC(=O)[C@H](CCCCN)NC(=O)CCSCc2cccc(c2)CSC[C@@H](C(N)=O)NC(=O)[C@]2(C)CCCN2C(=O)[C@H](Cc2ccc(O)cc2)NC1=O` [Compound 006] ([Mpa]KG[Trp(5-F)][Trp(5-F)]PIY[αMeP]C-NH2; linker 1-10 via mXylylene), under setting [1], the half-inhibitory concentration (IC50) – broadly, the point on the concentration scale where inhibition reaches its midpoint – lay in the range of 21 to 50 µM.
Same read-out and setting: under `CC[C@H](C)[C@@H]1NC(=O)[C@@H]2CCCN2C(=O)[C@H](Cc2c[nH]c3ccc(F)cc23)NC(=O)[C@H](Cc2c[nH]c3ccc(F)cc23)NC(=O)[C@@H](C)NC(=O)[C@H](CCCCN)NC(=O)CCSCc2cc(F)cc(c2)CSC[C@@H](C(N)=O)NC(=O)[C@]2(C)CCCN2C(=O)[C@H](Cc2ccc(OC)cc2)NC1=O` [Compound 008] ([Mpa]K[dA][Trp(5-F)][Trp(5-F)]PIY(Me)[αMeP]C-NH2; linker 1-10 via mXylylene(5-F)) stands 21 to 50 µM; under `COc1ccc(C[C@@H]2NC(=O)[C@H](C(C)C)NC(=O)[C@@H]3CCCN3C(=O)[C@H](Cc3c[nH]c4ccc(F)cc34)NC(=O)[C@H](Cc3c[nH]c4ccc(F)cc34)NC(=O)[C@@H](C)NC(=O)[C@H](CCCCN)NC(=O)CCSCc3cccc(c3)CSC[C@@H](C(N)=O)NC(=O)[C@]3(C)CCCN3C2=O)cc1` [Compound 009] ([Mpa]K[dA][Trp(5-F)][Trp(5-F)]PVY(Me)[αMeP]C-NH2; linker 1-10 via mXylylene), 21 to 50 µM; under `CCC[C@@H]1NC(=O)CCSCc2cccc(c2)CSC[C@@H](C(N)=O)NC(=O)[C@@H]2CCCN2C(=O)[C@H](Cc2ccc(OC)cc2)NC(=O)[C@H]([C@@H](C)OC)N(C)C(=O)[C@@H]2CCCN2C(=O)[C@H](Cc2cn(C)c3ccccc23)N(C)C(=O)[C@H](Cc2ccc3ccccc3c2)NC(=O)[C@@H](CC(C)C)N(C)C1=O` [Compound 039] ([Mpa][Nva][dNMeL][2Nal][NMeTrp(1-Me)]P[NMeT](Me)Y(Me)PC-NH2; linker 1-10 via mXylylene), 21 to 50 µM.
Regarding `COc1ccc(C[C@@H]2NC(=O)[C@H]([C@@H](C)O)NC(=O)[C@@H]3CCCN3C(=O)[C@H](Cc3c[nH]c4ccc(F)cc34)NC(=O)[C@H](Cc3c[nH]c4ccc(F)cc34)NC(=O)[C@@H](C)NC(=O)[C@H](CCCCN)NC(=O)CCSCc3cc(F)cc(c3)CSC[C@@H](C(N)=O)NC(=O)[C@]3(C)CCCN3C2=O)cc1` [Compound 041] ([Mpa]K[dA][Trp(5-F)][Trp(5-F)]PTY(Me)[αMeP]C-NH2; linker 1-10 via mXylylene(5-F)), the half-inhibitory concentration (IC50) under setting [1] is 21 to 50 µM.
Still for that read-out and setting: under `COc1ccc(C[C@@H]2NC(=O)[C@H]([C@@H](C)O)NC(=O)[C@@H]3C[C@H](F)CN3C(=O)[C@H](Cc3c[nH]c4ccc(F)cc34)NC(=O)[C@H](Cc3c[nH]c4ccc(F)cc34)NC(=O)[C@@H](C)NC(=O)[C@H](NC(C)=O)CCC(=O)NCCOc3ccc(cc3)C[C@@H](C(N)=O)NC(=O)[C@]3(C)CCCN3C2=O)cc1` [Compound 056] (Ac-[dE][dA][Trp(5-F)][Trp(5-F)][Pro(cis-4-F)]TY(Me)[αMeP][AEF]-NH2; lactam 1-9) stands 21 to 50 µM.
For the molecule `COc1ccc(C[C@@H]2NC(=O)[C@H]([C@@H](C)O)NC(=O)[C@@H]3CCCN3C(=O)[C@H](Cc3c[nH]c4ccc(F)cc34)NC(=O)[C@H](Cc3c[nH]c4ccc(F)cc34)NC(=O)[C@@H](C)NC(=O)[C@H](CCCCN)NC(=O)CCSCc3cc(ccc3F)CSC[C@@H](C(N)=O)NC(=O)[C@]3(C)CCCN3C2=O)cc1` [Compound 069] ([Mpa]K[dA][Trp(5-F)][Trp(5-F)]PTY(Me)[αMeP]C-NH2; linker 1-10 via X59), the concentration for half-maximal inhibition (IC50) under setting [1] fell in the range of 21 to 50 µM.
Still for that read-out and setting: for `CO[C@@H](C)[C@@H]1NC(=O)[C@@H]2CCCN2C(=O)[C@H](Cc2c[nH]c3ccc(F)cc23)NC(=O)[C@H](Cc2c[nH]c3ccc(F)cc23)NC(=O)CNC(=O)[C@H](CCCCN)NC(=O)CCSCc2cccc(c2)CSCCNC(=O)[C@]2(C)CCCN2C(=O)[C@H](Cc2ccc(O)cc2)NC1=O` [Compound 070] (cyclo(G[Trp(5-F)][Trp(5-F)]P[aThr](Me)Y[αMeP][X4]K)) the value was 21 to 50 µM; for `CO[C@@H](C)[C@@H]1NC(=O)[C@@H]2CCCN2C(=O)[C@H](Cc2c[nH]c3ccc(F)cc23)NC(=O)[C@H](Cc2c[nH]c3ccc(F)cc23)NC(=O)[C@@H](C)NC(=O)[C@H](CCCCN)NC(=O)CCSCc2cccc(c2)CSCCNC(=O)[C@]2(C)CCCN2C(=O)[C@H](Cc2ccc(O)cc2)NC1=O` [Compound 071] (cyclo(K[dA][Trp(5-F)][Trp(5-F)]P[aThr](Me)Y[αMeP][X4])), 21 to 50 µM; for `COc1ccc(C[C@@H]2NC(=O)[C@H]([C@@H](C)O)NC(=O)[C@@H]3CCCN3C(=O)[C@H](Cc3c[nH]c4ccc(F)cc34)NC(=O)[C@H](Cc3c[nH]c4ccc(F)cc34)NC(=O)[C@@H](C)NC(=O)[C@H](CCCCN)NC(=O)CCSCc3cc(cc(C(F)(F)F)c3)CSC[C@@H](C(N)=O)NC(=O)[C@]3(C)CCCN3C2=O)cc1` [Compound 073] ([Mpa]K[dA][Trp(5-F)][Trp(5-F)]PTY(Me)[αMeP]C-NH2; linker 1-10 via X40), 21 to 50 µM.
Consider `C#CCCC[C@@H]1NC(=O)[C@H](Cc2c[nH]c3ccc(F)cc23)NC(=O)[C@H](CCCCN=[N+]=[N-])NC(=O)[C@@H](C)NC(=O)[C@H](CCCCN)NC(=O)CCSCc2cccc(c2)CSCCNC(=O)[C@]2(C)CCCN2C(=O)[C@H](Cc2ccc(OC)cc2)NC(=O)[C@H]([C@H](C)O)NC1=O` [Compound 074] (cyclo(K[dA][Lys(N3)][Trp(5-F)][X53][aThr]Y(Me)[αMeP][X4])), for which, where the note is “IC50”, the IC50 lay within 21 to 50 µM.
Turning to `COc1ccc(C[C@@H]2NC(=O)[C@H]([C@@H](C)O)NC(=O)[C@@H]3C[C@H](F)CN3C(=O)[C@H](Cc3c[nH]c4ccc(F)cc34)NC(=O)[C@H](Cc3c[nH]c4ccc(F)cc34)NC(=O)[C@@H](C)NC(=O)[C@H](CCCCN)NC(=O)[C@@H](NC(C)=O)CCNC(=O)COc3ccc(cc3)C[C@@H](C(N)=O)NC(=O)[C@]3(C)CCCN3C2=O)cc1` [Compound 075] (Ac-[Dab]K[dA][Trp(5-F)][Trp(5-F)][Pro(cis-4-F)]TY(Me)[αMeP]Y-NH2; linker 1-10 via X2), the IC50 under setting [1] fell in the range of 21 to 50 µM.
On the same count and under the same terms, under `COc1ccc(C[C@@H]2NC(=O)[C@H]([C@@H](C)O)NC(=O)[C@@H]3C[C@H](F)CN3C(=O)[C@H](Cc3c[nH]c4ccc(F)cc34)NC(=O)[C@H](Cc3c[nH]c4ccc(F)cc34)NC(=O)[C@@H](C)NC(=O)CCCCNC(=O)c3ccc(cc3)C[C@@H](C(N)=O)NC(=O)[C@]3(C)CCCN3C2=O)cc1` [Compound 076] ([Ava][dA][Trp(5-F)][Trp(5-F)][Pro(cis-4-F)]TY(Me)[αMeP][Phe(4-COOH)]-NH2; lactam N-9) stands 0.1 to 1 µM.
Turning to `COc1ccc(C[C@@H]2NC(=O)[C@H]([C@@H](C)O)NC(=O)[C@@H]3C[C@H](F)CN3C(=O)[C@H](Cc3c[nH]c4ccc(F)cc34)NC(=O)[C@H](Cc3c[nH]c4ccc(F)cc34)NC(=O)[C@@H](C)NC(=O)[C@H](CCCCN)NC(=O)[C@@H](NC(C)=O)CC(=O)NCc3cccc(c3)C[C@@H](C(N)=O)NC(=O)[C@]3(C)CCCN3C2=O)cc1` [Compound 077] (Ac-DK[dA][Trp(5-F)][Trp(5-F)][Pro(cis-4-F)]TY(Me)[αMeP][Phe(3-CH2NH2)]-NH2; lactam 1-10), the IC50 under setting [1] lay in the range of 21 to 50 µM.
For the molecule `C#CCCC[C@@H]1NC(=O)[C@H](Cc2c[nH]c3ccc(F)cc23)NC(=O)[C@H](CCCN=[N+]=[N-])NC(=O)[C@@H](C)NC(=O)[C@H](C)NC(=O)CCSCc2cccc(c2)CSCCNC(=O)[C@]2(C)CCCN2C(=O)[C@H](Cc2ccc(OC)cc2)NC(=O)[C@H]([C@@H](C)O)NC1=O` [Compound 078] (cyclo(A[dA][Orn(N3)][Trp(5-F)][X53]TY(Me)[αMeP][X4])), under setting [1], the IC50 was in the range of 0.1 to 1 µM.
Turning to `COc1ccc(C[C@@H]2NC(=O)[C@H]([C@@H](C)O)NC(=O)[C@@H]3C[C@H](F)CN3C(=O)[C@H](Cc3c[nH]c4ccc(F)cc34)NC(=O)[C@H](Cc3c[nH]c4ccc(F)cc34)NC(=O)[C@@H](C)NC(=O)[C@H](CCCCN)NC(=O)[C@@H](NC(C)=O)CC(=O)NCc3ccccc3C[C@@H](C(N)=O)NC(=O)[C@]3(C)CCCN3C2=O)cc1` [Compound 079], under setting [1], the IC50 was 1 to 12.1 µM.
Still for that read-out and setting: under `COc1ccc(C[C@@H]2NC(=O)[C@@H]([C@H](C)O)NC(=O)[C@@H]3C[C@H](F)CN3C(=O)[C@H](Cc3c[nH]c4ccc(F)cc34)NC(=O)[C@H](Cc3c[nH]c4ccc(F)cc34)NC(=O)[C@@H](C)NC(=O)Cc3ccc(cc3)CNC(=O)c3ccc(cc3)C[C@@H](C(N)=O)NC(=O)[C@]3(C)CCCN3C2=O)cc1` [Compound 080] ([X7][dA][Trp(5-F)][Trp(5-F)][Pro(cis-4-F)][dT]Y(Me)[αMeP][Phe(4-COOH)]-NH2; lactam N-9) stands 1 to 12.1 µM.
Consider `COc1ccc(C[C@@H]2NC(=O)[C@H]([C@@H](C)O)NC(=O)[C@@H]3C[C@H](F)CN3C(=O)[C@H](Cc3c[nH]c4ccc(F)cc34)NC(=O)[C@H](Cc3c[nH]c4ccc(F)cc34)NC(=O)[C@@H](C)NC(=O)CCCC(=O)NCCOc3ccc(cc3)C[C@@H](C(N)=O)NC(=O)[C@]3(C)CCCN3C2=O)cc1` [Compound 081] ([dA][Trp(5-F)][Trp(5-F)][Pro(cis-4-F)]TY(Me)[αMeP][AEF]-NH2; linker N-8 via Glutaryl), for which the 50% inhibitory concentration (IC50) under setting [1] fell in the range of 0.1 to 1 µM.
